The numbers were not newly measured in patent US5041644A, “Peptide derivatives of β-chloro-L(Z)-dehydro-glutamic acid” (Merck & Co., Inc., priority 1987, dated 1991), which cites them from elsewhere.

SMILES strings stand for the structures.

Data set [1] has as its system D-Alanyl-D-Alanine ligase (synthetase). The settings on record: at both the donor and acceptor sites; most potent ligase inhibitor described heretofore.
The test system of a further data set is Micrococcus luteus. The settings on record: very narrow antibacterial spectrum; activity practically limited only to Micrococcus luteus.

Regarding `N[C@@H]1CONC1=O` [D-Cycloserine], the “inhibition of the ligase” value in data set [1] is recorded as “reversible inhibitor”.
`N[C@@H](C(=O)O)/C(Cl)=C/C(=O)O` [β-chloro-L-(Z)-dehydroglutamic acid]: the antibacterial activity result in the data set with Micrococcus luteus is “shows an antibacterial activity”.
